# Results: patent publication US12415786B2, “Substituted 2-heteroarylaminobenzenes and the salts thereof and their use as herbicidal agents” (Bayer Aktiengesellschaft, priority 2019, dated 2025)
# Key:
# Assay type in all cases: in vivo
# Setaria viridis = experiment: Herbicidal pre-emergence action (greenhouse pots), SETVI; conditions: 1280 g/ha, visual scoring after about 3 weeks vs untreated controls
# Excerpt: (§1) In the examples and tables below, the following abbreviations are used: • Undesired Plants/Weeds: • ABUTH: Abutilon theophrasti • AGSTE: Agrostis tenuis • AMARE Amaranthus retroflexus • ECHCG: Echinochloa crus-galli • LOLRI: Lolium rigidum • MATIN: Matricaria inodora • POAAN: Poa annua • SETVI: Setaria viridis • STEME: Stellaria media A. Herbicidal Early Post-Emergence Action Seeds of mono- and dicotyledonous weed plants were placed in plastic pots in sandy loam soil (doubly sown with one species each of mono- or dicotyledonous weed plants per pot) and covered with soil. The compounds of the invention, formulated in the form of wettable powders (WP) or as emulsion concentrates (EC), were then applied onto the surface of the covering soil as aqueous suspension or emulsion with addition of 0.5% additive at a water application rate of 600 liters per hectare (converted). After the treatment, the pots were placed in a greenhouse and kept under good growth conditions for the test plants. After about 3 weeks, the effect of the preparations was scored visually in comparison with untreated controls as percentages. For example, 100% activity=the plants have died, 0% activity=like untreated control plants. Tables C1-C8 below show the effects of selected compounds of the general formula (I) according to Table 1 above on various harmful plants and an application rate corresponding to 1280 g/ha, which were obtained by the experimental procedure mentioned above.
# Amaranthus retroflexus [1] = experiment: Herbicidal post-emergence action (greenhouse pots), AMARE; conditions: 1280 g/ha, visual rating about 3 weeks after treatment vs untreated controls
# Excerpt: In the examples and tables below, the following abbreviations are used: • Undesired Plants/Weeds: • ABUTH: Abutilon theophrasti • AGSTE: Agrostis tenuis • AMARE Amaranthus retroflexus • ECHCG: Echinochloa crus-galli • LOLRI: Lolium rigidum • MATIN: Matricaria inodora • POAAN: Poa annua • SETVI: Setaria viridis • STEME: Stellaria media A. Herbicidal Early Post-Emergence Action Seeds of mono- and dicotyledonous weed plants were placed in plastic pots in sandy loam soil (doubly sown with in each case one species of mono- or dicotyledonous weed plants per pot), covered with soil and cultivated in a greenhouse under controlled growth conditions. 2 to 3 weeks after sowing, the test plants were treated at the one-leaf stage. The compounds of the invention, formulated in the form of wettable powders (WP) or as emulsion concentrates (EC), were applied onto the green parts of the plants as aqueous suspension or emulsion with addition of 0.5% additive at a water application rate of 600 liters per hectare (converted). After the test plants had been kept in the greenhouse under optimum growth conditions for about 3 weeks, the activity of the preparations was rated visually in comparison to untreated controls. For example, 100% activity=the plants have died, 0% activity=like untreated control plants. Tables B1-B8 below show the effects of selected compounds of the general formula (I) according to Table 1 above on various harmful plants and an application rate corresponding to 1280 g/ha, which were obtained by the experimental procedure mentioned above.
# Amaranthus retroflexus [2] = experiment: Herbicidal pre-emergence action (greenhouse pots), AMARE; conditions: 1280 g/ha, visual scoring after about 3 weeks vs untreated controls
# Excerpt: as §1
# Stellaria media = experiment: Herbicidal pre-emergence action (greenhouse pots), STEME; conditions: 1280 g/ha, visual scoring after about 3 weeks vs untreated controls
# Excerpt: as §1
# Agrostis tenuis = experiment: Herbicidal early post-emergence action (96-well microtiter plates), AGSTE; conditions: 1900 g/ha, scored 9 to 12 days after treatment, 100% = plants have died, 0% = like untreated control plants
# Excerpt: (§2) In the examples and tables below, the following abbreviations are used: • Undesired Plants/Weeds: • ABUTH: Abutilon theophrasti • AGSTE: Agrostis tenuis • AMARE Amaranthus retroflexus • ECHCG: Echinochloa crus-galli • LOLRI: Lolium rigidum • MATIN: Matricaria inodora • POAAN: Poa annua • SETVI: Setaria viridis • STEME: Stellaria media A. Herbicidal Early Post-Emergence Action Seeds of monocotyledonous and dicotyledonous weed plants were placed in 96-well microtiter plates in quartz sand and grown in a climatized chamber under controlled growth conditions. 5 to 7 days after sowing, the test plants were treated at the cotyledon stage. The compounds according to the invention, formulated in the form of emulsion concentrates (EC), were applied with a water application rate of the equivalent of 2200 liters per hectare. After the test plants had been left to stand in the climatized chamber for 9 to 12 days under optimum growth conditions, the effect of the preparations was scored visually in comparison to untreated controls. Here, for example, 100% activity=the plants have died, 0% activity=like untreated control plants. Tables A1 to A2 below show the effects of selected compounds of the general formula (I) according to Table 1 above on various harmful plants and an application rate corresponding to 1900 g/ha, which were obtained by the experimental procedure mentioned above.
# Poa annua [3] = experiment: Herbicidal early post-emergence action (96-well microtiter plates), POAAN; conditions: 1900 g/ha, scored 9 to 12 days after treatment, 100% = plants have died, 0% = like untreated control plants
# Excerpt: as §2
# Poa annua [4] = experiment: Herbicidal pre-emergence action (greenhouse pots), POAAN; conditions: 1280 g/ha, visual scoring after about 3 weeks vs untreated controls
# Excerpt: as §1
SMILES,herbicidal activity SETVI (Setaria viridis),herbicidal activity AMARE (Amaranthus retroflexus [1]),herbicidal activity AMARE (Amaranthus retroflexus [2]),herbicidal activity STEME (Stellaria media),"AGSTE (herbicidal activity, scored visually in comparison to untreated controls) (Agrostis tenuis)","POAAN (herbicidal activity, scored visually in comparison to untreated controls) (Poa annua [3])",herbicidal activity POAAN (Poa annua [4])
N#Cc1cccc(Nc2ncc(Cl)cn2)c1Oc1ccccc1F [Example 1-284],100%,100%,100%,90%,100%,100%,–
N#Cc1cccc(Nc2ccc(Br)cn2)c1Oc1ccc(F)c(F)c1 [Example 1-144],–,–,–,–,100%,100%,–
Fc1ccc(Oc2c(Cl)cccc2Nc2ccc(Cl)cn2)cc1 [Example 1-75],–,–,–,–,100%,80%,–
Fc1ccc(Oc2c(F)cccc2Nc2ccc(Cl)cn2)cc1 [Example 1-40],–,–,–,–,80%,80%,–
"N#Cc1cccc(Nc2ncccn2)c1Oc1ccccc1F [Example 1-246, 2-(2-Fluorophenoxy)-3-(pyrimidin-2-ylamino)benzonitrile]",100%,100%,100%,100%,80%,–,–
CN(C)c1cccc(Nc2ncc(Cl)cn2)c1Oc1ccc(F)cc1 [Example 1-366],–,–,–,–,100%,80%,–
N#Cc1cccc(Nc2ncc(Cl)cn2)c1Oc1cc(F)ccc1F [Example 1-290],–,100%,90%,–,80%,–,90%
N#Cc1cccc(Nc2ccc(Br)cn2)c1Oc1ccc(F)cc1 [Example 1-143],–,–,–,–,80%,–,–
CC(C)Oc1ccc(Nc2cccc(C#N)c2Oc2ccc(F)cc2)nc1 [Example 1-342],100%,100%,100%,–,–,–,–
CNc1cccc(Nc2ncc(Cl)cn2)c1Oc1ccc(F)cc1 [Example 1-365],–,–,–,–,100%,–,–
N#Cc1cccc(Nc2ncccn2)c1Oc1cc(F)cc(F)c1 [Example 1-254],100%,100%,100%,–,–,–,90%
N#Cc1cccc(Nc2ccc(Cl)cn2)c1Oc1ccc(F)cc1 [Example 1-124],–,100%,–,–,100%,100%,–
N#Cc1cccc(Nc2ncc(F)cn2)c1Oc1cc(F)cc(F)c1 [Example 1-273],90%,100%,100%,–,80%,–,–
N#Cc1cccc(Nc2ncc(Cl)cn2)c1Oc1cccc(Cl)c1 [Example 1-287],100%,100%,100%,–,80%,–,100%
CCSc1cccc(Nc2ncc(Cl)cn2)c1Oc1ccc(F)cc1 [Example 1-376],–,–,–,–,80%,80%,–
"Nc1c([N+](=O)[O-])cc(Nc2ncc(Cl)cn2)c(Oc2ccc(F)cc2)c1Cl [Example 2-101, 2-Chloro-4-(5-chloropyrimidin-2-ylamino)-3-(4-fluorophenoxy)-6-nitroaniline]",–,–,–,–,100%,80%,–

SMILES,herbicidal activity SETVI (Setaria viridis),herbicidal activity AMARE (Amaranthus retroflexus [1]),herbicidal activity AMARE (Amaranthus retroflexus [2]),herbicidal activity STEME (Stellaria media),"AGSTE (herbicidal activity, scored visually in comparison to untreated controls) (Agrostis tenuis)","POAAN (herbicidal activity, scored visually in comparison to untreated controls) (Poa annua [3])",herbicidal activity POAAN (Poa annua [4])
N#Cc1cccc(Nc2ncc(Cl)cn2)c1Oc1cc(F)cc(F)c1 [Example 1-292],90%,100%,100%,–,100%,80%,–
Cc1cccc(Nc2ccc(Cl)cn2)c1Oc1ccc(F)cc1 [Example 1-79],–,–,–,–,80%,100%,100%
CSc1cccc(Nc2ncc(Cl)cn2)c1Oc1ccc(F)cc1 [Example 1-328],–,–,–,–,80%,80%,–
N#Cc1cccc(Nc2ncc(Cl)cn2)c1Oc1cccc(C(F)(F)F)c1 [Example 1-297],100%,100%,–,–,100%,80%,–
N#Cc1ccc(Nc2cccc(C#N)c2Oc2ccc(F)cc2)nc1 [Example 1-145],–,–,90%,–,–,80%,–
Clc1ccc(Oc2c(Cl)cccc2Nc2ncc(Cl)cn2)cc1 [Example 1-341],–,100%,–,90%,100%,100%,–
N#Cc1cccc(Nc2ncc(F)cn2)c1Oc1ccccc1F [Example 1-265],90%,100%,100%,100%,80%,–,100%
Cc1ccc(Nc2cccc(C#N)c2Oc2ccc(F)cc2)nc1 [Example 1-149],–,100%,100%,–,100%,–,–
COc1cccc(Oc2c(C#N)cccc2Nc2ncc(F)cn2)c1 [Example 1-281],–,–,–,–,100%,–,–
N#Cc1cccc(Nc2ncccn2)c1Oc1cc(F)ccc1F [Example 1-252],–,–,90%,–,–,–,–
Fc1ccc(Oc2c(Br)cccc2Nc2ncc(Cl)cn2)cc1 [Example 1-358],–,–,–,–,100%,100%,–
N#Cc1ccc(Nc2cccc(C#N)c2Oc2ccc(F)c(F)c2)nc1 [Example 1-146],–,–,–,–,80%,–,–
N#Cc1cccc(Nc2ncc(F)cn2)c1Oc1cc(F)ccc1F [Example 1-271],90%,100%,100%,–,80%,80%,90%
COc1cccc(Nc2ncc(Cl)cn2)c1Oc1ccc(F)cc1 [Example 1-324],–,–,–,–,100%,80%,–
N#Cc1cccc(Nc2ccc(Cl)cn2)c1Oc1ccc(F)c(F)c1 [Example 1-129],90%,100%,–,90%,100%,–,–
